Results published in patent publication US7534898B2, “Process for producing monatin or salt thereof” (Ajinomoto Co., Inc., priority 2004, dated 2009).

Legend:
[1] = cited from earlier work; for intensity as a sweetener (strength of sweetness): comparison among the four optical isomers of monatin, Patent Document 5
[2] = solubility in ethanol (crystallization with ethanol as poor solvent); format: physicochemical; conditions: compared with (2R,4R) monatin
Source text: It is also possible to efficiently separate the steric isomers by utilizing the difference in solubility of (2S,4R) monatin and (2R,4R) monatin or of (2R,4S) monatin and (2S,4S) monatin in ethanol. […] Therefore, before crystallization of (2R,4R) monatin (salt), (2S,4R) monatin is firstly crystallized and the resulting crystals are removed. […] In case crystals of (2S,4R) monatin are previously removed by means of crystallization, it is possible to efficiently remove (2S,4R) monatin from the reaction solution when the crystallizing temperature is set at as high as about 70 to 80° C. and the crystals prepared by the crystallization are preferably filtered when they are still at high temperature. In addition, the crystals of (2R,4R) monatin (salt) prepared may be recrystallized the same as above for making the purity higher. The above is also the same in the case of (2R,4S) monatin and (2S,4S) monatin.

## N[C@@H](C[C@@](O)(Cc1c[nH]c2ccccc12)C(=O)O)C(=O)O (stereo in doubt) [(2S,4S) monatin, 4-hydroxy-4-(3-indolylmethyl)-2-aminoglutaric acid]
[1]; compared with sucrose, Patent Document 1
  sweet taste relative to sucrose: several hundred times as sweet as sucrose
[1]
  intensity as a sweetener (strength of sweetness): lower strength of sweetness

## N[C@@H](C[C@@](O)(Cc1c[nH]c2ccccc12)C(=O)O)C(=O)O (stereo in doubt) [(2S,4R) monatin, 4-hydroxy-4-(3-indolylmethyl)-2-aminoglutaric acid]
[2]
  solubility in ethanol: low as compared with (2R,4R) monatin
[1]
  intensity as a sweetener (strength of sweetness): lower strength of sweetness

## N[C@H](C[C@@](O)(Cc1c[nH]c2ccccc12)C(=O)O)C(=O)O (stereo in doubt) [(2R,4R) monatin, 4-hydroxy-4-(3-indolylmethyl)-2-aminoglutaric acid]
[1]
  intensity as a sweetener (strength of sweetness): far better in terms of intensity as a sweetener

## N[C@@H](C[C@@](O)(Cc1c[nH]c2ccccc12)C(=O)O)C(=O)O (stereo in doubt) [(2R,4S) monatin, 4-hydroxy-4-(3-indolylmethyl)-2-aminoglutaric acid]
[1]
  intensity as a sweetener (strength of sweetness): far better in terms of intensity as a sweetener
